# Experimental data reported in patent US12351559B2 (Biohaven Therapeutics Ltd., priority 2014, dated 2025).
# Biological target: T1, Kv7.2/7.3 (Homo sapiens, UniProt O43525+O43526)
# T1 construct: host or cells: HEK cells, tetracycline-inducible expression
# Test: Kv7.2/7.3 activation assay, QPatch planar patch-clamp, single concentration screen
# Type: cell-based
# Design: key: <1.2-fold increase over baseline (−); +/−: as a range from <1.2-fold increase over baseline (−) up to >6-fold increase over baseline (+++); as a range from <1.2-fold increase over baseline (−) up to >6-fold increase over baseline (+++); as a range from <1.2-fold increase over baseline (−) up to >6-fold increase over baseline (+++); >6-fold increase over baseline (+++)
# Conditions: Kv7.2/Kv7.3 co-expressing HEK cells, compound 3 μM, steady-state current at end of 2 s pulse to −30 mV
row,Structure (SMILES),Kv7.2/7.3 Activity: increase in current over baseline
1,"C[C@@](O)(CC(=O)Nc1nc2ccc(Cl)cc2n1C1CCC1)c1ccccc1 [Example 100, (R)-N-(6-chloro-1-cyclobutyl-1H-benzo[d]imidazol-2-yl)-3-hydroxy-3-phenylbutanamide]",+
2,"C[C@H](C(=O)Nc1nc2ccc(C#N)cc2n1C1CCC1)N(C)CC(F)(F)F [Example 22, (R)-N-(6-cyano-1-cyclobutyl-1H-benzo[d]imidazol-2-yl)-2-(methyl(2,2,2-trifluoroethyl)amino)propanamide]",+/−
3,"C[C@](O)(CC(=O)Nc1nc2ccc(Cl)cc2n1C1CCC1)c1ccccc1 [Example 99, (S)-N-(6-chloro-1-cyclobutyl-1H-benzo[d]imidazol-2-yl)-3-hydroxy-3-phenylbutanamide]",+
4,"CC(C)(C)CC(=O)Nc1nc2ccc(C#N)cc2n1-c1ccc(F)cn1 [Example 74, N-(6-cyano-1-(5-fluoropyridin-2-yl)-1H-benzo[d]imidazol-2-yl)-3,3-dimethylbutanamide]",+
5,"CC(O)(CC(=O)Nc1nc2ccc(C#N)cc2n1C1CCC1)c1ccccc1 (centres unmarked) [Example 17, N-(6-cyano-1-cyclobutyl-1H-benzo[d]imidazol-2-yl)-3-hydroxy-3-phenylbutanamide]",++
6,"COC(=O)c1cccc2nc(NC(=O)CC(C)(C)C)n(C3CCC3)c12 [Example 67, methyl 1-cyclobutyl-2-(3,3-dimethylbutanamido)-1H-benzo[d]imidazole-7-carboxylate]",+/−
7,"CC(C)(O)c1ccc2nc(NC(=O)CC(O)(C3CC3)C3CC3)n(C3CCC3)c2c1 [Example 97, N-(1-cyclobutyl-6-(2-hydroxypropan-2-yl)-1H-benzo[d]imidazol-2-yl)-3,3-dicyclopropyl-3-hydroxypropanamide]",+/−
8,"CC(C)(C)CC(=O)Nc1nc2ccc(C#N)cc2n1-c1ccc(F)cc1 [Example 31, N-(6-cyano-1-(4-fluorophenyl)-1H-benzo[d]imidazol-2-yl)-3,3-dimethylbutanamide]",+

# Next, values leading:
row,Kv7.2/7.3 Activity: increase in current over baseline,Structure (SMILES)
1,+,"CC(C)(O)c1ccc2nc(NC(=O)C3CC34CC4)n(-c3ccc(F)cc3)c2c1 (centres unmarked) [Example 109, N-(1-(4-fluorophenyl)-6-(2-hydroxypropan-2-yl)-1H-benzo[d]imidazol-2-yl)spiro[2.2]pentane-1-carboxamide]"
2,+,"O=C(CC1(O)CCC1)Nc1nc2ccc(C(F)(F)F)cc2n1-c1cc(F)cc(F)c1 [Example 141, N-(1-(3,5-difluorophenyl)-6-(trifluoromethyl)-1H-benzo[d]imidazol-2-yl)-2-(1-hydroxycyclobutyl)acetamide]"
3,++,"CC(C)(O)CC(=O)Nc1nc2ccc(C(F)(F)F)cc2n1-c1ccc(F)c(F)c1 [Example 143, N-(1-(3,4-difluorophenyl)-6-(trifluoromethyl)-1H-benzo[d]imidazol-2-yl)-3-hydroxy-3-methylbutanamide]"
4,+,"Cc1cc2nc(NC(=O)CC(C)(C)C)n(C(C)(C)C)c2cc1C#N [Example 127, N-(1-(tert-butyl)-6-cyano-5-methyl-1H-benzo[d]imidazol-2-yl)-3,3-dimethylbutanamide]"
5,+,"CC(C)(O)CC(=O)Nc1nc2ccc(C(F)(F)F)cc2n1-c1cc(F)cc(F)c1 [Example 136, N-(1-(3,5-difluorophenyl)-6-(trifluoromethyl)-1H-benzo[d]imidazol-2-yl)-3-hydroxy-3-methylbutanamide]"
6,+,"CC(C)(O)c1ccc2nc(NC(=O)C3CC34CCC4)n(C3CCC3)c2c1 (centres unmarked) [Example 101, N-(1-cyclobutyl-6-(2-hydroxypropan-2-yl)-1H-benzo[d]imidazol-2-yl)spiro[2.3]hexane-1-carboxamide]"
